Laboratory results taken from patent publication US9557321B2, “Method for screening drugs for suppressing inflammasome activity” (KYOTO UNIVERSITY, priority 2010, dated 2017).
Residues, ends and D or L forms follow the SMILES beside them. *: point of attachment. Cbz = O=C(OCc1ccccc1)*

Columns and labels:
[1] = system: macrophage MT-1 induced from iPS cells (mutant NLRP3 gene); details: for amount of IL-1β secretion: each concentration of drug, cultured two hours, then drug and LPS (1 μg/ml) another four hours, FIG. 4; for amount of secretion of IL-1β: 100 ng/ml IL-1Ra, 12 μM Bay11-7028, 50 μM CA074Me or 10 μM Parthenolide, two hours, then drug and LPS (1 μg/ml) four hours, FIG. 5A
[2] = system: macrophage MT-1 induced from iPS cells (mutant NLRP3 gene); assay: amount of IL-8 secretion from LPS-stimulated macrophage MT-1 (Human Th1/Th2 11plex Kit); details: 100 ng/ml IL-1Ra, 12 μM Bay11-7028 or 10 μM Parthenolide; two hours, then drug and LPS (1 μg/ml) four hours; FIG. 5B
[3] = system: macrophage MT-1 induced from iPS cells (mutant NLRP3 gene); assay: amount of IL-6 secretion from LPS-stimulated macrophage MT-1 (Human Th1/Th2 11plex Kit); details: 100 ng/ml IL-1Ra, 12 μM Bay11-7028 or 10 μM Parthenolide; two hours, then drug and LPS (1 μg/ml) four hours; FIG. 5C

Compound | amount of IL-1β secretion [1] | amount of secretion of IL-1β [1] | amount of secretion of IL-8 [2] | amount of secretion of IL-6 [3]
C[C@@H]1C[C@@H]([C@H](O)CC2CC(=O)NC(=O)C2)C(=O)[C@@H](C)C1 [CHX, cycloheximide] | inhibited IL-1β secretion in a dose dependent manner |  |  | 
Cc1ccc(S(=O)(=O)/C=C/C#N)cc1 [Bay11-7028] |  | inhibited | inhibited | inhibited
IL-1Ra: interleukin 1 receptor antagonist (R&D Systems) |  | did not change | did not change | did not change
CCCNC(=O)[C@H]1O[C@@H]1C(=O)N[C@H](C(=O)N1CCC[C@H]1C(=O)OC)[C@@H](C)CC [CA074Me] |  | specifically inhibited |  | 
CC(C)C[C@@H](C=O)NC(=O)[C@H](CC(C)C)NC(=O)[C@H](CC(C)C)NC(=O)OCc1ccccc1 [MG132] (Cbz-Leu-Leu-Leu-aldehyde) | inhibited IL-1β secretion in a dose dependent manner |  |  | 
